Source: article PMC11460631, “Inhibition of transient receptor potential vanilloid 3 channels by antimalarial hydroxychloroquine alleviates TRPV3-dependent dermatitis” (The Journal of Biological Chemistry, 2024)

How the values were obtained:
[1] = system: TNF-α, IL-6, IgE, IL-4 in mouse dorsal skin tissues; assay: Carvacrol-induced AD-like mouse model: inflammatory factors by ELISA; format: in vivo
Description: We therefore generated a carvacrol-induced AD mouse model to test the effect of HCQ.
To generate an AD-like mice model, 2% carvacrol (dissolved in 30% ethanol solution) was topically smeared onto the mice dorsum 1 day after hair removal with a depilatory cream (Vetin Depilatory Cream). Mice received a topical administration of an equal volume (200 μl) of 2% carvacrol or in the presence of 2 mg/ml HCQ. […] After the application of carvacrol for 5 days, the external appearance of mice was photographed and then sampled. The external appearance was graded based on three aspects: thickness, erythema/bleeding, and dryness/desquamation, with severity assessed on a score of 0 to 4. The degree of thickness was measured by the thickness of the skin in H&E staining. Skin tissues were either fixed in 4% paraformaldehyde or placed in PBS buffer containing 1% protease inhibitor, facilitating subsequent steps of paraffin embedding or ELISA experiments.
Animal skin tissues were placed in PBS buffer containing 1% protease inhibitors, then homogenized, and centrifuged for supernatants. Cytokine concentrations of supernatants (IL-4, IL-6, TNF-α, and IgE) were measured using ELISA kits (Tsingke) according to the manufacturer's instructions. The absorption at 450 nm was measured by a microplate reader (Thermo Multiskan MK3).

[2] = molecular target: T1, TRPV3 (Homo sapiens, UniProt Q8NET8); assay: Single-channel recordings of TRPV3 in the inside-out configuration; format: cell-based; details: −80 mV
T1 construct: YFP or GFP; expressed in transfected cells; host or cells: HEK293T
T1 sequence (Q8NET8 1-790): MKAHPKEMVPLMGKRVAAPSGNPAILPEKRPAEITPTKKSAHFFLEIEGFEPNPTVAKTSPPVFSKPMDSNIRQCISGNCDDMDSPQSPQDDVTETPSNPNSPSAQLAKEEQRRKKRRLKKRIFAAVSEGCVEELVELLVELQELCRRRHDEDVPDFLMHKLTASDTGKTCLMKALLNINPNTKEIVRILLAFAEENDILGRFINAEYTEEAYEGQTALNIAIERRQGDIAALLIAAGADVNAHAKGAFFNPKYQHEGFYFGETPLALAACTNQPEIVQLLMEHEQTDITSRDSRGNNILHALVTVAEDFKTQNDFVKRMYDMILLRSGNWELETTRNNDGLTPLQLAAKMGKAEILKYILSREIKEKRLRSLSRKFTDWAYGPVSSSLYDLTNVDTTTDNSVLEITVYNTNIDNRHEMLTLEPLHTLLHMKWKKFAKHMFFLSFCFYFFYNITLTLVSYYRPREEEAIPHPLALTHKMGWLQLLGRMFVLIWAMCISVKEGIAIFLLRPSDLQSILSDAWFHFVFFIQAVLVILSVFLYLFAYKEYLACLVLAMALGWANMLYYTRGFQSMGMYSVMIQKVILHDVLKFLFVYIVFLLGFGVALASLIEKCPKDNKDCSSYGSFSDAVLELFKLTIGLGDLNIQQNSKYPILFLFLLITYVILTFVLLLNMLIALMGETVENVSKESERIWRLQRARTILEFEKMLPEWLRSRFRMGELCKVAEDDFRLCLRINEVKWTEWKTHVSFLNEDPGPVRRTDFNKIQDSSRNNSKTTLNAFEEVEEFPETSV
Description: (§1) HEK293T cells are cultured using Dulbecco's modified Eagle's medium containing 10% fetal bovine serum and 1% penicillin-streptomycin in a cell incubator with 5% CO2 at 37 °C. Plasmids of murine TRPV1, TRPV4, TRPM8, and human TRPV3, TRPA1 are labeled with YFP or GFP as indicators for subsequent electrophysiological recordings. Complementary DNA constructs of ion channels were transiently transfected with Lipofectamine 3000 (Invitrogen). And 12 to 18 h after transient transfection, electrophysiological recordings were performed.
Patch-clamp recordings were carried out with a HEKA EPC10 amplifier controlled by PatchMaster software (HEKA; https://www.heka.com/products/products_main.html#soft_pm) ([36]). Patch pipettes were prepared from borosilicate glass and fire-polished to the resistance of 3 to 8 MΩ by P-97 puller for whole-cell recordings. For single-channel recordings, patch pipettes were fire-polished to a higher resistance of 6 to 10 MΩ. Both bath solution and pipette solution contained 130 mM NaCl, 10 mM glucose, 0.2 mM EDTA, and 3 mM Hepes and were adjusted to pH 7.2 to 7.4 with NaOH. Whole-cell recordings and single-channel recordings were performed at ± 80 mV. The current was sampled at 10 kHz and filtered at 2.9 kHz. All recordings were performed at room temperature (25 °C). A gravity-driven system (RSC-200, Bio-Logic) with freely rotated perfusion tubes was used for the perfusion of ligands. Bath and ligand solutions were delivered through separate tubes to minimize the mixing of solutions. Patch pipette holding cells were placed in front of the perfusion tube outlet for perfusion. Igor Pro versions 5.05 and 9.05 (WaveMetrics; https://www.wavemetrics.com/products/igorpro) were used to analyze the data.

[3] = molecular target: T2, mTRPV1 (Mus musculus, UniProt Q704Y3); assay: Whole-cell current recordings, mTRPV1; format: cell-based, murine; details: 100 μM HCQ; current activated by 5 μM capsaicin
T2 construct: YFP or GFP; expressed in transfected cells; host or cells: HEK293T
Description: To elucidate the specificity of HCQ inhibition on TRPV3, we conducted whole-cell current recordings on other known pruritus-related TRP channels, such as hTRPA1, mTRPV1, mTRPV4, and mTRPM8 (Fig. 3, A and F). […] Because of the relatively larger inhibition of HCQ on mTRPM8 current, we tested the concentration dependence of HCQ on mTRPM8 channels.
as §1
Patch-clamp recordings were carried out with a HEKA EPC10 amplifier controlled by PatchMaster software (HEKA; https://www.heka.com/products/products_main.html#soft_pm) ([36]). Patch pipettes were prepared from borosilicate glass and fire-polished to the resistance of 3 to 8 MΩ by P-97 puller for whole-cell recordings. For single-channel recordings, patch pipettes were fire-polished to a higher resistance of 6 to 10 MΩ. […]

[4] = mouse tissues, HCQ 2 mg/ml topical with 2% carvacrol, 5 days

T2 sequence (Q704Y3 whole entry): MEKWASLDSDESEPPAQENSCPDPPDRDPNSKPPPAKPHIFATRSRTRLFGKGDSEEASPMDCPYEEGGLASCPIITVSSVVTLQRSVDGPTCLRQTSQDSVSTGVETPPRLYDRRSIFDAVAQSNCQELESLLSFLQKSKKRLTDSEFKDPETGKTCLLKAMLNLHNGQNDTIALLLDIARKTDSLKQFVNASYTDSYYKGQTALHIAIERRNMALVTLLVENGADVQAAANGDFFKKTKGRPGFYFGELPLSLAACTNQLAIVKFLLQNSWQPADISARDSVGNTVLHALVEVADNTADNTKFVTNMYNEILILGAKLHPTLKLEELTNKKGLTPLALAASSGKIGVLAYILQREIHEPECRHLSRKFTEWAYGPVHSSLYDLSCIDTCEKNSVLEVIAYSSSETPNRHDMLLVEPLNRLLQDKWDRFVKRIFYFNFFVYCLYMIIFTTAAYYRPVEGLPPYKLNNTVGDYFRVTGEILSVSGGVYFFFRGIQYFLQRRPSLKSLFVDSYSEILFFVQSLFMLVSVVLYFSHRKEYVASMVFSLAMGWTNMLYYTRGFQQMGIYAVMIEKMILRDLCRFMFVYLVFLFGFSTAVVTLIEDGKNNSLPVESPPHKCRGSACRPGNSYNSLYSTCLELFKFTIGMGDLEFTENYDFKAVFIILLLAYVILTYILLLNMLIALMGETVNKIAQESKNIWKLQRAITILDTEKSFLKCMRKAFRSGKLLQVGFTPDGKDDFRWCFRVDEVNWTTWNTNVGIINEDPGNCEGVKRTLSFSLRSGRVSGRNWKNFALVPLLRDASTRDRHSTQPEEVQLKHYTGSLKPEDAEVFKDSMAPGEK

SMILES: CCN(CCO)CCCC(C)Nc1ccnc2cc(Cl)ccc12 (centres unmarked) [HCQ, hydroxychloroquine]
- suppression of serum IgE levels ([1]; HCQ 2 mg/ml topical with 2% carvacrol, 5 days): 60.22 ± 11.26%
- IL-4 levels compared to the model group ([1]; mouse tissues, HCQ 2 mg/ml or DXM 1 mg/ml topical with 2% carvacrol): no significant difference
- inhibition of release of carvacrol-induced IL-6 [1, 4]: 77.09% ± 5.38%
- inhibition of release of carvacrol-induced TNF-α [1, 4]: 88.10% ± 4.12%
- TRPV3 channel open probability (Po) ([2]; 50 μM HCQ with 1 mM 2-APB): 0.50 ± 0.03
- TRPV3 channel open probability (Po) ([2]; 100 μM HCQ with 1 mM 2-APB): 0.13 ± 0.04
- single-channel conductance ([2]; HCQ with 1 mM 2-APB, HCQ concentration not stated in the sentence (50 and 100 μM tested)): 37.97 ± 2.96 pS
- reduction of mTRPV1 current [3]: 12.37% ± 5.32%
